The record followed here is patent US12466809B2, “CDK2/5 degraders and uses thereof” (DANA-FARBER CANCER INSTITUTE, INC., priority 2019, dated 2025).

One experiment deals with CDK9 (Homo sapiens (Human), UniProt P50750). Briefly: Knockdown of CDKs in Jurkat cells, immunoblot: CDK9. Format: cell-based. Particulars: 0.25 μM, 6 hours. The method, then: Jurkat acute T cell leukemia cells were treated with 0, 0.1 μM, 1 μM, and 10 μM of compounds 1-7 or 0.25 μM THAL-SNS-032 (a known CDK9 degrader, as a positive control for CDK9 degradation) for 6 hours, and then lysed and immunoblotted with antibodies to CDK1, CDK2, CDK5, CDK7, CDK9, CDK12, CDK13 and R-Actin (FIG. 1A-FIG. 2B).
(In general: In western blotting, separated proteins are transferred to a membrane and probed.)

In another experiment the target is CDK5 (Homo sapiens (Human), UniProt Q00535). The experiment can be described thus: Knockdown of CDK2/5 in OVCAR8 cells, immunoblot: CDK5. The class given is cell-based. Particulars: various concentrations, 6 hours.
In the next experiment the target is CDK2 (Homo sapiens (Human), UniProt P24941). The experiment can be described thus: Knockdown of CDK2/5 in OVCAR8 cells, immunoblot: CDK2. Conditions: various concentrations, 6 hours. Format: cell-based.
Another experiment deals with CDK5/p25 (Homo sapiens (Human), UniProt Q00535). Briefly: Invitrogen Z'-LYTE kinase assay CDK5/p25 (assay ID 318, Km app, 10-point titration). The class given is biochemical. Conditions: CDK5/p25, Km app ATP. From the text: (§1) CDK2 and CDK5 IC50 data were attained through the use of Invitrogen™ commercial assays. The method for CDK2 (assay ID: 315, kinase|Z'-LYTE™|CDK2/Cyclin A|Km app) used a 10-point titration. The method for CDK5 (assay ID: 318, kinase|Z'-LYTE™|CDK5/p25|Km app) used a 10-point titration.

Another experiment has as its target CDK2/Cyclin A (Homo sapiens (Human), UniProt P24941). The experiment can be described thus: Invitrogen Z'-LYTE kinase assay CDK2/Cyclin A (assay ID 315, Km app, 10-point titration). Format: biochemical. Particulars: Km app ATP.
Description: as §1

Sequence of CDK5/p25 (Q00535 whole entry): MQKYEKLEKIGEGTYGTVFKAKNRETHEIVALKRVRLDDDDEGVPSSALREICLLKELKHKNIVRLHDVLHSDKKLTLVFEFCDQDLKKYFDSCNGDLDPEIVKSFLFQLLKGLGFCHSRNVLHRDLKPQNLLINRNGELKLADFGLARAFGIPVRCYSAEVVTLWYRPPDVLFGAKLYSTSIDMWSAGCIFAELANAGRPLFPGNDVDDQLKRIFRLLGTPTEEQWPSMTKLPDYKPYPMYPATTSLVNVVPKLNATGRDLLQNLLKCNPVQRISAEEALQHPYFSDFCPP
Sequence of CDK5/p25 (Q15078 99-307 partner): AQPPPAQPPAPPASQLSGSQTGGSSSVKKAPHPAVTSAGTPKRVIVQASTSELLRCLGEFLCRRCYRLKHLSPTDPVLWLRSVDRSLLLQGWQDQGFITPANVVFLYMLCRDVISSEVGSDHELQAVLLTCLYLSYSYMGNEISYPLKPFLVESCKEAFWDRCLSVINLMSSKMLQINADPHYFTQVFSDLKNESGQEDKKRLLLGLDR
Sequence of CDK9 (P50750 whole entry): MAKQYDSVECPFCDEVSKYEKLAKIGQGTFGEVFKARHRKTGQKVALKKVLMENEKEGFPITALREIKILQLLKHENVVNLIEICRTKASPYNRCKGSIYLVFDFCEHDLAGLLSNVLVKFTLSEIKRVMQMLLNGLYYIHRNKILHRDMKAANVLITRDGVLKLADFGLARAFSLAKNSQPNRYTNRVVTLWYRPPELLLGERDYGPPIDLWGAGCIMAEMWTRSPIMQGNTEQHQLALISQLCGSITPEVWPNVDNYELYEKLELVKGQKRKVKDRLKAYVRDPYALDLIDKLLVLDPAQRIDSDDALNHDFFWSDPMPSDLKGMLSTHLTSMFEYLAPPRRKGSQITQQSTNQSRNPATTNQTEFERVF
Sequence of CDK5 (Q00535 whole entry): as the sequence (Q00535 whole entry) above

For `CC(C)(C)c1cnc(CSc2cnc(NC(=O)C3CCN(CC(=O)NCCOCCOCCOCCNc4cccc5c4C(=O)N(C4CCC(=O)NC4=O)C5=O)CC3)s2)o1` (centres unmarked) [THAL-SNS-032], on CDK9, the CDK9 degradation result is on record as “induced CDK9 degradation”.
With `NC(=O)c1c(F)cccc1Nc1nc(NC2CCN(S(=O)(=O)CCNC(=O)CCCCCCCCOc3cccc4c3C(=O)N(C3CCC(=O)NC3=O)C4=O)CC2)ncc1Br` (centres unmarked) [Compound 5, 2-((5-bromo-2-((1-((2-(9-((2-(2,6-dioxopiperidin-3-yl)-1,3-dioxoisoindolin-4-yl)oxy)nonanamido)ethyl)sulfonyl)piperidin-4-yl)amino)pyrimidin-4-yl)amino)-6-fluorobenzamide], the “knockdown of CDK5” value at CDK5 is “selective knockdown”. Further, the “knockdown of CDK2” value on CDK2 is “selective knockdown”. The figures for the IC50 against CDK5/p25 and against CDK2/Cyclin A were 16.1 nM and 28.7 nM, respectively.
For `NC(=O)c1c(F)cccc1Nc1nc(NC2CCN(S(=O)(=O)CCNC(=O)CCCCCCCOc3cccc4c3C(=O)N(C3CCC(=O)NC3=O)C4=O)CC2)ncc1Br` (centres unmarked) [Compound 6, 2-((5-bromo-2-((1-((2-(8-((2-(2,6-dioxopiperidin-3-yl)-1,3-dioxoisoindolin-4-yl)oxy)octanamido)ethyl)sulfonyl)piperidin-4-yl)amino)pyrimidin-4-yl)amino)-6-fluorobenzamide], the figures for the IC50 against CDK5/p25 and against CDK2/Cyclin A were 11.8 nM and 17.1 nM, respectively.
With `NC(=O)c1c(F)cccc1Nc1nc(Nc2ccc(S(=O)(=O)NCCOCCOCCOCCOCCNc3cccc4c3C(=O)N(C3CCC(=O)NC3=O)C4=O)cc2)ncc1Br` (centres unmarked) [Compound 23, 2-((5-bromo-2-((4-(N-(14-((2-(2,6-dioxopiperidin-3-yl)-1,3-dioxoisoindolin-4-yl)amino)-3,6,9,12-tetraoxatetradecyl)sulfamoyl)phenyl)amino)pyrimidin-4-yl)amino)-6-fluorobenzamide], the IC50 (usually the point on the concentration scale where inhibition reaches its midpoint) on CDK5/p25 came out at 7 nM; against CDK2/Cyclin A, 10.9 nM.
Regarding `O=C(CCOCCOCCOCCOCCNc1cccc2c1C(=O)N(C1CCC(=O)NC1=O)C2=O)NCCS(=O)(=O)N1CCC(Nc2ncc(Br)c(Nc3cccc4c3C(=O)NC4)n2)CC1` (centres unmarked) [Compound 20, N-(2-((4-((5-bromo-4-((3-oxoisoindolin-4-yl)amino)pyrimidin-2-yl)amino)piperidin-1-yl)sulfonyl)ethyl)-1-((2-(2,6-dioxopiperidin-3-yl)-1,3-dioxoisoindolin-4-yl)amino)-3,6,9,12-tetraoxapentadecan-15-amide], the IC50 at CDK5/p25 was 5.8 nM; against CDK2/Cyclin A, 4.7 nM.
As for `O=C(CCCCCCCCOc1cccc2c1C(=O)N(C1CCC(=O)NC1=O)C2=O)NCCS(=O)(=O)N1CCC(Nc2ncc(Br)c(Nc3cccc4c3C(=O)NC4)n2)CC1` (centres unmarked) [Compound 21, N-(2-((4-((5-bromo-4-((3-oxoisoindolin-4-yl)amino)pyrimidin-2-yl)amino)piperidin-1-yl)sulfonyl)ethyl)-9-((2-(2,6-dioxopiperidin-3-yl)-1,3-dioxoisoindolin-4-yl)oxy)nonanamide], the figures for the IC50 at CDK5/p25 and on CDK2/Cyclin A were 7.6 nM and 10.5 nM, respectively.
As to `Cc1cc(S(=O)(=O)NCCCCN2CCN(C(=O)COc3cccc4c3C(=O)N(C3CCC(=O)NC3=O)C4=O)CC2)ccc1Nc1ncc(Br)c(Nc2cccc(F)c2C(N)=O)n1` (centres unmarked) [Compound 48, 2-((5-bromo-2-((4-(N-(4-(4-(2-((2-(2,6-dioxopiperidin-3-yl)-1,3-dioxoisoindolin-4-yl)oxy)acetyl)piperazin-1-yl)butyl)sulfamoyl)-2-methylphenyl)amino)pyrimidin-4-yl)amino)-6-fluorobenzamide], the concentration for half-maximal inhibition (IC50) against CDK5/p25 was found to be 2.9 nM; at CDK2/Cyclin A, 2 nM.
Turning to `NC(=O)c1c(F)cccc1Nc1nc(NC2CCN(S(=O)(=O)CCNC(=O)CCOCCOCCOCCOCCNc3cccc4c3C(=O)N(C3CCC(=O)NC3=O)C4=O)CC2)ncc1Br` (centres unmarked) [Compound 1, N-(2-((4-((5-bromo-4-((2-carbamoyl-3-fluorophenyl)amino)pyrimidin-2-yl)amino)piperidin-1-yl)sulfonyl)ethyl)-1-((2-(2,6-dioxopiperidin-3-yl)-1,3-dioxoisoindolin-4-yl)amino)-3,6,9,12-tetraoxapentadecan-15-amide], the values for the IC50 against CDK5/p25 and on CDK2/Cyclin A were 8.1 nM and 6.4 nM, respectively.
Turning to `NC(=O)c1c(F)cccc1Nc1nc(N[C@@H]2CCCN(S(=O)(=O)CCNC(=O)CCCCCCCCOc3cccc4c3C(=O)N(C3CCC(=O)NC3=O)C4=O)C2)ncc1Br` (stereo partly drawn) [Compound 8, 2-((5-bromo-2-(((3R)-1-((2-(9-((2-(2,6-dioxopiperidin-3-yl)-1,3-dioxoisoindolin-4-yl)oxy)nonanamido)ethyl)sulfonyl)piperidin-3-yl)amino)pyrimidin-4-yl)amino)-6-fluorobenzamide], the results for the IC50 against CDK5/p25 and against CDK2/Cyclin A were 241 nM and 347 nM, respectively.
The corresponding values for `NC(=O)c1c(F)cccc1Nc1nc(NC2CCN(S(=O)(=O)CCNC(=O)CCCCCOc3cccc4c3C(=O)N(C3CCC(=O)NC3=O)C4=O)CC2)ncc1Br` (centres unmarked) [Compound 7, 2-((5-bromo-2-((1-((2-(6-((2-(2,6-dioxopiperidin-3-yl)-1,3-dioxoisoindolin-4-yl)oxy)hexanamido)ethyl)sulfonyl)piperidin-4-yl)amino)pyrimidin-4-yl)amino)-6-fluorobenzamide] are 13.7 nM and 20.5 nM.
On to `NC(=O)c1c(F)cccc1Nc1nc(NC2CCN(S(=O)(=O)CCNC(=O)CCOCCNc3cccc4c3C(=O)N(C3CCC(=O)NC3=O)C4=O)CC2)ncc1Br` (centres unmarked) [Compound 2, 2-((5-bromo-2-((1-((2-(3-(2-((2-(2,6-dioxopiperidin-3-yl)-1,3-dioxoisoindolin-4-yl)amino)ethoxy)propanamido)ethyl)sulfonyl)piperidin-4-yl)amino)pyrimidin-4-yl)amino)-6-fluorobenzamide], for which the IC50 worked out at 3.8 nM against CDK5/p25 and 5.1 nM on CDK2/Cyclin A.
